From patent US8895695B2, “Template-fixed beta-hairpin peptidomimetics with CXCR4 antagonizing activity” (priority 2003, dated 2014)
Like-named read-outs stand apart in the source and are kept apart here. Numbered stars: 1 amine (or outer) side, 2 acyl side, 3 side chain; on linkers, the order of the positions; unused ones are H or OH. Bridge positions count the residues as written; N and C are the ends. Square brackets hold non-standard residues; d marks the D form. Peptide text beside a SMILES is read from it. X3 = COCCOCCOCC(=O)N[C@H]1C[C@@H](C(=O)[*:2])N([*:1])C1; 2Nal = N[C@@H](Cc1ccc2ccccc2c1)C(=O)O; Cit = NC(=O)NCCC[C@H](N)C(=O)O; Orn = NCCC[C@H](N)C(=O)O; Dab = NCC[C@H](N)C(=O)O

Tests used:
[1] = system: human red blood cells (hRBC); assay: Hemolysis; assay type: cell-based
Summary of the method: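 Washed fresh human erythrocytes (20% v/v, about 0.9×10^9 cells/ml final) incubated with peptide at 100 μM for 1 h at 37° C. Supernatant diluted 20-fold and OD540 read. Percent hemolysis relative to 0.1% Triton X-100 in H2O (100%), with PBS alone as 0%.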

in vitro = conditions: human
CXCR4 = CXCR4 (Homo sapiens, UniProt P61073); assay: Ca2+-assay method 2 (Flexstation, SDF-1 induced calcium mobilization); assay type: cell-based; parameters: expressed in transfected cells; host or cells: mouse pre-B cell line 300-19; conditions: method 2 (Ex. 54-160), mouse pre-B cell line 300-19 with human CXCR4, 10 nM SDF-1
Sequence of CXCR4 (P61073 whole entry): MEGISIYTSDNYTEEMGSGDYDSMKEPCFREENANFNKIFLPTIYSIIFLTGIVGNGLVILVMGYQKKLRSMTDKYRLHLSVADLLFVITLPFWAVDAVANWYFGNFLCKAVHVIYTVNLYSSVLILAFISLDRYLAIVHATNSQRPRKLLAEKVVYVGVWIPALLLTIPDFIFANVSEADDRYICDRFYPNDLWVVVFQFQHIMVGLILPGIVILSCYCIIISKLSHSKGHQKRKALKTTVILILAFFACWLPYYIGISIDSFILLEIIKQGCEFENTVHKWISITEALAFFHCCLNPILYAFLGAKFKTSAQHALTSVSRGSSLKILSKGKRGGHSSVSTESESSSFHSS

[2] = read-out: IC50 (nM) Ca^2+ assay
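Wherever GI50 is given: MTT reduction read as absorbance at 595 nm, blank-corrected and expressed as percent growth relative to the time-zero cell reading, triplicate wells per concentration.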

Row | Structure (SMILES) | Hemolysis at 100 μM [1] [%] | GI50 at 48 h (in vitro) [µM] | IC50 (CXCR4; [2]) [nM] | Hemolysis at 100 μM ([1]; percent hemolysis, 100 μM peptide, 20% v/v hRBC, 1 hour at 37° C.) [%] | IC50 (CXCR4; IC50 (nM) Ca^2+ assay) [nM]
1 | C[C@@H](O)[C@@H]1NC(=O)[C@H](CCCNC(=N)N)NC(=O)[C@H](Cc2ccc(O)cc2)NC(=O)[C@@H]2CCCN2C(=O)[C@H]2CCCN2C(=O)[C@H](CCCCN)NC(=O)[C@H](CCC(N)=O)NC(=O)[C@H](Cc2ccc(O)cc2)NC(=O)[C@@H]2CSSC[C@H](NC1=O)C(=O)N[C@@H](CCCNC(=N)N)C(=O)NCC(=O)N1CCC[C@@H]1C(=O)N[C@@H](CCN)C(=O)N[C@@H](CCCNC(=N)N)C(=O)N[C@@H](Cc1ccc3ccccc3c1)C(=O)N2 [Ex. 104] (cyclo(YRTCRG[dP][Dab]R[2Nal]CYQK[dP]P); disulfide 4-11) | 0 | 71 | 7.4 | – | –
2 | N=C(N)NCCC[C@@H]1NC(=O)[C@@H]2CSSC[C@H](NC(=O)[C@H](Cc3c[nH]c4ccccc34)NC(=O)[C@H](CCCNC(=N)N)NC(=O)[C@H](CCCNC(=N)N)NC(=O)[C@H]3CCCN3C(=O)CNC1=O)C(=O)N[C@@H](Cc1ccc(O)cc1)C(=O)N[C@@H](CCCNC(N)=O)C(=O)N[C@@H](CCCCN)C(=O)N1CCC[C@@H]1C(=O)N1CCC[C@H]1C(=O)N[C@@H](Cc1ccc(O)cc1)C(=O)N[C@@H](Cc1c[nH]cn1)C(=O)N[C@@H](CCCNC(N)=O)C(=O)N2 [Ex. 105] (cyclo(YH[Cit]CRG[dP]RRWCY[Cit]K[dP]P); disulfide 4-11) | 0 | 49 | 0.62 | – | –
3 | N=C(N)NCCC[C@@H]1NC(=O)[C@@H]2CSSC[C@H](NC(=O)[C@H](Cc3c[nH]c4ccccc34)NC(=O)[C@H](CCCNC(=N)N)NC(=O)[C@H](CCCNC(=N)N)NC(=O)[C@H]3CCCN3C(=O)CNC1=O)C(=O)N[C@@H](Cc1ccc(O)cc1)C(=O)N[C@@H](CCCNC(N)=O)C(=O)N[C@@H](CCCCN)C(=O)N1CCC[C@@H]1C(=O)N1CCC[C@H]1C(=O)N[C@@H](Cc1ccc(O)cc1)C(=O)N[C@@H](CCCCN)C(=O)N[C@@H](CCCNC(N)=O)C(=O)N2 [Ex. 106] (cyclo(YK[Cit]CRG[dP]RRWCY[Cit]K[dP]P); disulfide 4-11) | 0 | 83 | 3.1 | – | –
4 | N=C(N)NCCC[C@@H]1NC(=O)[C@@H]2CSSC[C@H](NC(=O)[C@H](Cc3c[nH]c4ccccc34)NC(=O)[C@H](CCCNC(=N)N)NC(=O)[C@H](CCCNC(=N)N)NC(=O)[C@H]3CCCN3C(=O)CNC1=O)C(=O)N[C@@H](Cc1ccc(O)cc1)C(=O)N[C@@H](CCCNC(N)=O)C(=O)N[C@@H](CCCCN)C(=O)N1CCC[C@@H]1C(=O)N1CCC[C@H]1C(=O)N[C@@H](Cc1ccccc1)C(=O)N[C@@H](CCCNC(=N)N)C(=O)N[C@@H](CCCNC(N)=O)C(=O)N2 [Ex. 107] (cyclo(FR[Cit]CRG[dP]RRWCY[Cit]K[dP]P); disulfide 4-11) | 0.4 | 50 | 3.8 | – | –
5 | N=C(N)NCCC[C@@H]1NC(=O)[C@@H]2CSSC[C@H](NC(=O)[C@H](Cc3c[nH]c4ccccc34)NC(=O)[C@H](CCCNC(=N)N)NC(=O)[C@H](CCCNC(=N)N)NC(=O)[C@H]3CCCN3C(=O)CNC1=O)C(=O)N[C@@H](Cc1ccc(O)cc1)C(=O)N[C@@H](CCC(N)=O)C(=O)N[C@@H](CCCCN)C(=O)N1CCC[C@@H]1C(=O)N1CCC[C@H]1C(=O)N[C@@H](Cc1ccc(O)cc1)C(=O)N[C@@H](CCCNC(=N)N)C(=O)N[C@@H](CCCNC(N)=O)C(=O)N2 [Ex. 108] (cyclo(YR[Cit]CRG[dP]RRWCYQK[dP]P); disulfide 4-11) | 0 | 70 | 4.6 | – | –
6 | N=C(N)NCCC[C@@H]1NC(=O)[C@@H]2CSSC[C@H](NC(=O)[C@H](Cc3c[nH]c4ccccc34)NC(=O)[C@H](CCCNC(=N)N)NC(=O)[C@H](CCN)NC(=O)[C@H]3CCCN3C(=O)CNC1=O)C(=O)N[C@@H](Cc1ccc(O)cc1)C(=O)N[C@@H](CCC(N)=O)C(=O)N[C@@H](CCCCN)C(=O)N1CCC[C@@H]1C(=O)N1CCC[C@H]1C(=O)N[C@@H](Cc1ccc(O)cc1)C(=O)N[C@@H](CCCNC(=N)N)C(=O)N[C@@H](CCCNC(N)=O)C(=O)N2 [Ex. 109] (cyclo(YR[Cit]CRG[dP][Dab]RWCYQK[dP]P); disulfide 4-11) | 0 | 65 | 3 | – | –
7 | N=C(N)NCCC[C@@H]1NC(=O)[C@@H]2CSSC[C@H](NC(=O)[C@H](Cc3ccc(O)cc3)NC(=O)[C@H](CCCNC(=N)N)NC(=O)[C@H](CCCNC(=N)N)NC(=O)[C@H]3CCCN3C(=O)CNC1=O)C(=O)N[C@@H](Cc1ccc(O)cc1)C(=O)N[C@@H](CCCNC(N)=O)C(=O)N[C@@H](CCCCN)C(=O)N1CCC[C@@H]1C(=O)N1CCC[C@H]1C(=O)N[C@@H](Cc1ccc(O)cc1)C(=O)N[C@@H](CCCNC(=N)N)C(=O)N[C@@H](CCCNC(N)=O)C(=O)N2 [Ex. 112] (cyclo(YR[Cit]CRG[dP]RRYCY[Cit]K[dP]P); disulfide 4-11) | 0 | 76 | 7.8 | – | –
8 | N=C(N)NCCC[C@@H]1NC(=O)[C@@H]2CSSC[C@H](NC(=O)[C@H](Cc3ccc(O)cc3)NC(=O)[C@H](CCCNC(=N)N)NC(=O)[C@H](CCCNC(=N)N)NC(=O)[C@H]3CCCN3C(=O)CNC1=O)C(=O)N[C@@H](CCCNC(N)=O)C(=O)N[C@@H](Cc1ccc(O)cc1)C(=O)N[C@@H](CCCCN)C(=O)N1CCC[C@@H]1C(=O)N1CCC[C@H]1C(=O)N[C@@H](Cc1ccc(O)cc1)C(=O)N[C@@H](CCCNC(=N)N)C(=O)N[C@@H](CCCNC(N)=O)C(=O)N2 [Ex. 113] (cyclo(YR[Cit]CRG[dP]RRYC[Cit]YK[dP]P); disulfide 4-11) | 0 | 45 | 0.62 | – | –
9 | N=C(N)NCCC[C@@H]1NC(=O)CNC(=O)[C@@H]2CCCN2C(=O)[C@H]2CCCN2C(=O)[C@H](CCCCN)NC(=O)[C@H](CCCNC(N)=O)NC(=O)[C@H](Cc2ccc(O)cc2)NC(=O)[C@@H]2CSSC[C@H](NC(=O)[C@H](CCCNC(N)=O)NC1=O)C(=O)N[C@@H](CCCNC(=N)N)C(=O)NCC(=O)N1CCC[C@@H]1C(=O)N[C@@H](CCCNC(=N)N)C(=O)N[C@@H](CCCNC(=N)N)C(=O)N[C@@H](Cc1ccc3ccccc3c1)C(=O)N2 [Ex. 114] (cyclo(GR[Cit]CRG[dP]RR[2Nal]CY[Cit]K[dP]P); disulfide 4-11) | 0 | 67 | 1.3 | – | –
10 | COCCOCCOCC(=O)N[C@H]1C[C@H]2C(=O)N[C@@H](Cc3ccc(O)cc3)C(=O)N[C@@H](CCCNC(=N)N)C(=O)N[C@@H](CCCNC(N)=O)C(=O)N[C@H]3CSSC[C@H](NC(=O)[C@H](Cc4c[nH]c5ccccc45)NC(=O)[C@H](CCCNC(=N)N)NC(=O)[C@H](CCCNC(=N)N)NC(=O)[C@H]4CCCN4C(=O)CNC(=O)[C@H](CCCNC(=N)N)NC3=O)C(=O)N[C@@H](Cc3ccc(O)cc3)C(=O)N[C@@H](CCCNC(N)=O)C(=O)N[C@@H](CCCCN)C(=O)N3CCC[C@@H]3C(=O)N2C1 [Ex. 116] (cyclo(YR[Cit]CRG[dP]RRWCY[Cit]K[dP][X3]); disulfide 4-11) | – | 20 | – | 0 | 14.5
11 | N=C(N)NCCC[C@@H]1NC(=O)[C@@H]2CSSC[C@H](NC(=O)[C@H](Cc3c[nH]c4ccccc34)NC(=O)[C@H](CCCN)NC(=O)[C@H](CCCNC(=N)N)NC(=O)[C@H]3CCCN3C(=O)CNC1=O)C(=O)N[C@@H](Cc1ccc(O)cc1)C(=O)N[C@@H](CCCNC(N)=O)C(=O)N[C@@H](CCCCN)C(=O)N1CCC[C@@H]1C(=O)N1CCC[C@H]1C(=O)N[C@@H](Cc1ccc(O)cc1)C(=O)N[C@@H](CCCNC(=N)N)C(=O)N[C@@H](CCCNC(N)=O)C(=O)N2 [Ex. 117] (cyclo(YR[Cit]CRG[dP]R[Orn]WCY[Cit]K[dP]P); disulfide 4-11) | 0 | 44 | 3.4 | – | –
